Measured values reported in patent US20040033210A1, “Enhancement of antibody-cytokine fusion protein mediated immune responses by co-administration with prostaglandin inhibitor” (EMD Lexigen Research Center Corp., priority 1998, published 2004).

Tested on: LLC-EpCAM subcutaneous tumors
Assay: Combination therapy of LLC-Ep subcutaneous tumors in C57BL/6 mice with indomethacin (Example 5), tumor volume
Type: in vivo
Conditions: after treatment for 22 days; fusion protein 25 μg/mouse i.v., 5 daily injections; indomethacin 20 μg/mL in drinking water throughout
Description: FIG. 5 is a line graph depicting the effect on subcutaneous tumors of an antibody-cytokine fusion protein administered either alone or in combination with indomethacin. The size of LLC-EpCAM subcutaneous tumors were monitored in mice treated with phosphate buffered saline (closed diamonds), a huKS-huγ1-huIL2 fusion protein (closed squares), indomethocin (closed triangles), and a combination of the huKS-huγ1-huIL2 fusion protein and indomethocin (crosses).
Female C57lB6 mice were injected subcutaneously in the mid-back with LLC-Ep cells (5×10^5 per mouse) grown in cell culture. After about two weeks, animals with palpable tumors in the range of 150-400 mm^3 were divided into four groups, with an equal distribution of tumor sizes between the groups. […] Tumor growth was monitored by volumetric measurements until animals in the control group became moribund and were euthanized. Tumor volumes were measured with calipers and calculated as V=4 π/3 (0.5L×0.5W×0.5H), where L is the length, W is the width, and H is the height of the tumor. […]
When the tumors reached 100-200 mm^3 in size (about 7 to 14 days), the mice were randomized into four groups, 5 mice per group. […] Tumor volumes were measured as described in Example 3. […]

Question: Which T/C ratio does the source give for `COc1ccc2c(c1)c(CC(=O)O)c(C)n2C(=O)c1ccc(Cl)cc1` [indomethacin] here?
Answer: 0.60
